The supplement of paper PMC10307832

Key:
Assay in all cases: relative viability (nuclei count vs DMSO), 5 days (fraction); higher = more cells survive
[1] = compound: Cc1ccc(NC(=O)c2ccc(CN3CCN(C)CC3)cc2)cc1Nc1nc(-c2cccnc2)cs1 [Masitinib] + CCNC(=O)c1noc(-c2cc(C(C)C)c(O)cc2O)c1-c1ccc(CN2CCOCC2)cc1 [Luminespib] (partner 0.01 µM)
Summary of the method: (§1)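 Nuclei were stained with Hoechst during a one-step fixation (final 0.05% Triton X-100, 1% formaldehyde, 1 ug/ml Hoechst) carried out 5 days after dosing, then counted on 4× images. The cells, lung cancer lines in 1536-well plates, had been dosed by pin tool the day after seeding with one drug alone or a fixed anchor-drug dose plus five library-drug doses (not always all listed) in √10 steps. Relative viability is the nuclei count in treated wells divided by that in vehicle wells, and each value is the median of duplicate plates.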

[2] = compound: Cc1ccc(NC(=O)c2ccc(CN3CCN(C)CC3)cc2)cc1Nc1nc(-c2cccnc2)cs1 [Masitinib] + CS(=O)(=O)N1CCN(Cc2cc3nc(-c4cccc5[nH]ncc45)nc(N4CCOCC4)c3s2)CC1 [Pictilisib] (partner 1 µM)
Summary of the method: as §1

[3] = compound: Cc1ccc(NC(=O)c2ccc(CN3CCN(C)CC3)cc2)cc1Nc1nc(-c2cccnc2)cs1 [Masitinib] + C[C@]1(O)C[C@@H](c2nc(-c3ccc4ccc(-c5ccccc5)nc4c3)c3c(N)nccn32)C1 [Linsitinib] (partner 1 µM)
Summary of the method: as §1

[4] = compound: Cc1ccc(NC(=O)c2ccc(CN3CCN(C)CC3)cc2)cc1Nc1nc(-c2cccnc2)cs1 [Masitinib] + COc1cc2c(Oc3ccc(NC(=O)C4(C(=O)Nc5ccc(F)cc5)CC4)cc3F)ccnc2cc1OCCCN1CCOCC1 [Foretinib] (partner 0.25 µM)
Summary of the method: as §1

Cell Line: UMC-11
- relative viability ([1]; first compound 0.03162 µM): 1.08
- relative viability ([1]; first compound 0.1 µM): 1.13
- relative viability ([1]; first compound 0.3162 µM): 1.17
- relative viability ([1]; first compound 1 µM): 1.12
- relative viability ([2]; first compound 0.01 µM): 0.744
- relative viability ([2]; first compound 0.03162 µM): 0.862
- relative viability ([2]; first compound 0.1 µM): 0.948
- relative viability ([2]; first compound 0.3162 µM): 0.972
- relative viability ([2]; first compound 1 µM): 0.856
- relative viability ([3]; first compound 0.01 µM): 0.982
- relative viability ([3]; first compound 0.03162 µM): 1.12
- relative viability ([3]; first compound 0.1 µM): 1.27
- relative viability ([3]; first compound 0.3162 µM): 1.07
- relative viability ([3]; first compound 1 µM): 1.25
- relative viability ([4]; first compound 0.03162 µM): 0.951
- relative viability ([4]; first compound 0.1 µM): 1.12
- relative viability ([4]; first compound 0.3162 µM): 1.17
- relative viability ([4]; first compound 1 µM): 1.15
